# Reference: patent US10202371B2, “Oxazolidin-2-one-pyrimidine derivatives and the use thereof as phosphatidylinositol-3-kinase inhibitors” (Novartis AG, priority 2012, dated 2019)
# Columns and labels:
# [1] = target: human mTOR (GST-mTOR) (Homo sapiens (Human), UniProt P42345); experiment: Binding assay mTor (Lanthascreen kinase binding assay); settings: Tracer-314
# Excerpt: Catalytically active human PI3Kα, PI3Kβ, PI3Kδ, and mTOR were cloned, expressed and purtified as described (Maira S M, Stauffer F, Brueggen J, Furet P, Schnell C, Fritsch C, Brachmann S, Chène P, de Pover A, Schoemaker K, Fabbro D, Gabriel D, Simonen M, Murphy L, Finan P, Sellers W, Garcia-Echeverria C (2008), Mol Cancer Ther. 7:1851-63 and Maira S M, Pecchi S, Brueggen J, Huh K, Schnell C, Fritsch C, Nagel T, Wiesmann M, Brachmann S, Dorsch M, Chène P, Schoemaker K, De Pover A, Menezes D, Fabbro D, Sellers W, Garcia-Echeverria C, Voliva CF (2011), Mol. Cancer Ther. accepted).
# TR-FRET assays for protein kinases uses a long-lifetime lanthanide Terbium or Europium chelates as the donor species which overcome interference by compound autofluorescence or light scatter from precipitated compounds, by introducing a delay after excitation by a flashlamp excitation source. Results are often expressed as a ratio of the intensities of the acceptor and donor fluorophores. The ratiometric nature of such a value corrects for differences in assay volumes between wells, as well as corrects for quenching effects due to colored compounds.
# Binding Assays are based on the binding and displacement of an Alexa Fluor® 647-labeled, ATP-competitive kinase inhibitors to the kinase of interest. Invitrogen's “Kinase Tracers” have been developed to address a wide range of kinase targets and are based on ATP-competitive kinase inhibitors, making them suitable for detection of any compounds that bind to the ATP site or to an allosteric site altering the conformation of the ATP site. Inhibitors that bind the ATP site include both Type I kinase inhibitors, which bind solely to the ATP site, and Type II inhibitors (e.g., Gleevec®/Imatinib, Sorafenib, BIRB-796), which bind to both the ATP site and a hydrophobic site exposed in the DFG-out (non-active) conformation. […] The sole exception was a substrate-competitive compound, and thus not a true allosteric inhibitor.
# In contrast to most fluorescence-based kinase activity assays, LanthaScreen® Eu^3+ Kinase Binding Assays can be read continuously, which facilitates evaluation of compounds with slow binding kinetics. Also, unlike most activity assays, binding assays can be performed using either active or non-activated kinase preparations, which enables characterization of compounds that bind preferentially to non-activated kinases, such as Gleevec®/imatinib and some allosteric inhibitors.
# In the Lanthascreen™ kinase binding assay, the donor (Eu^3+-anti-GST antibody) is excited at 340 nm and will transfer its energy to the acceptor (Alexa Fluor® 647-labeled ATP-competitive kinase inhibitor=Tracer-314). The emission from the Tracer-314 (Alexa Fluor® 647 inhibitor) can be monitored with a filter centered at 665 nm because it is located between the emission peaks of the donor, which is measured at 615/620 nm. The binding of both, the Tracer-314 and Eu^3+-anti-GST antibody, to the kinase results in a high degree of FRET from the Eu^3+-donor fluorophore to the Alexa-Fluor® 647-acceptor fluorophore on the Tracer-314. Binding of an inhibitor to the kinase competes for binding with the tracer, resulting in a loss of FRET.
# 50 nL of compound dilutions were dispensed onto white 384-well small volume polystyrene plate as described in section 2.2. Then 5 μL of GST-mTOR and Europium-anti-GST antibody followed by 5 μL of tracer-314 (final assay volume 10 μL) are incubated at RT. The standard reaction buffer for the Lanthascreen™ kinase binding assay contained 50 mM HEPES pH 7.5, 5 mM MgCl2, 1 mM EGTA, 0.01% Pluronic F-127. Plates are read 60 mins later in a Synergy2 reader using an integration time of 0.2 microseconds and a delay of 0.1 microseconds.
# To calculate the emission ratio, the signal emitted at 665 nm from the acceptor (Alexa Fluor® 647-labeled Tracer-314) is divided by the signal emitted at 620 nm from the donor (Eu^3+ anti-GST antibody) […]
# [2] = target: PI3Kgamma (Homo sapiens (Human), UniProt P48736); experiment: Biochemical assay PI3Kgamma (Adapta TR-FRET); settings: read-out: PI3Kg/IC50
# PI3Kgamma, sequence (P48736 whole entry, species assumed): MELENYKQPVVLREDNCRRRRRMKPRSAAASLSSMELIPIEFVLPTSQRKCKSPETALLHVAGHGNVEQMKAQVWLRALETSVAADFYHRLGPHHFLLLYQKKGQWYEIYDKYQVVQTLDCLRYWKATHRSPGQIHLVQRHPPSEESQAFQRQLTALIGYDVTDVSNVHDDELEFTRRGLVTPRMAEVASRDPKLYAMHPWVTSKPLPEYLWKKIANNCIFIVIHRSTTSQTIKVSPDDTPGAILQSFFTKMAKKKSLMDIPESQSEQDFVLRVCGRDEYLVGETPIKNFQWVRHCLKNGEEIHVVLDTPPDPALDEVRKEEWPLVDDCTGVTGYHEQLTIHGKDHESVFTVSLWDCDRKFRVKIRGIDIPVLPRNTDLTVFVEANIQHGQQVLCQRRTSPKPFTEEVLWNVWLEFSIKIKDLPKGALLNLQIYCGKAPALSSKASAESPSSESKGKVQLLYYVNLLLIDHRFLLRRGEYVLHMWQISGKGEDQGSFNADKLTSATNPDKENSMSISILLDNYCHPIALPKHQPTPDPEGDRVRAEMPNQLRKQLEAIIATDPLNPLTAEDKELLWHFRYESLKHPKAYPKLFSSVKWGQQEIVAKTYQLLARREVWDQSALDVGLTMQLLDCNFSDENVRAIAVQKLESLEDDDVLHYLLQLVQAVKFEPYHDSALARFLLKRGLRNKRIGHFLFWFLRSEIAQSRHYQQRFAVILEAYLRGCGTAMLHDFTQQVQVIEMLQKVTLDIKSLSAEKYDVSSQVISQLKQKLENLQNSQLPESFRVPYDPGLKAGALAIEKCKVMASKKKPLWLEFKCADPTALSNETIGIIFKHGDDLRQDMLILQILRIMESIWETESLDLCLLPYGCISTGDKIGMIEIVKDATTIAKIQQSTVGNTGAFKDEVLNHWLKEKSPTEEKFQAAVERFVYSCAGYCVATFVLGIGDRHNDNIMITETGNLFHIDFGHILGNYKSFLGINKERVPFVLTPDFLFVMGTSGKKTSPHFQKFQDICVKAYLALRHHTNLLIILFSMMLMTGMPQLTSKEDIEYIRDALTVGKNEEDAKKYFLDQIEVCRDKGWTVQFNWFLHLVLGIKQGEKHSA
# Excerpt: The TR-FRET Adapta™ Universal Kinase Assay Kit was purchased from Invitrogen
# Corporation (Carlsbad/CA, USA) (Cat. No. PV5099). The kit contains the following reagents: Adapta Eu-anti-ADP Antibody (Europium labeled anti-ADP antibody in HEPES buffered saline, Cat. No. PV5097), Alexa Fluor® 647-labeled ADP tracer (Alexa Fluor® 647-labeled ADP tracer in HEPES buffered saline, Cat. No. PV5098), proprietary TR-FRET dilution buffer pH 7.5 (Cat. No. PV3574).
# PIK3CD substrate Phosphatidylinositol was obtained from Invitrogen (vesicules consisting of 2 mM PI in 50 mM HEPES pH7.5; Cat. No. PV5371).
# Time-Resolved Fluorescence Resonance Energy Transfer (TR-FRET) is a technology based on energy transfer between two adjacent dyes, from an excited electron in one dye (the donor) to an electron of an adjacent dye (the acceptor) through resonance, then released as a photon. This energy transfer is detected by an increase in the fluorescence emission of the acceptor, and a decrease in the fluorescence emission of the donor. TR-FRET assays for protein kinases use a long-lifetime lanthanide Terbium or Europium chelates as the donor species which overcome interference from compound autofluorescence or light scatter from precipitated compounds, by introducing a delay after excitation by a flashlamp excitation source. Results are often expressed as a ratio of the intensities of the acceptor and donor fluorophores. The ratiometric nature of such a value corrects for differences in assay volumes between wells, as well as corrects for quenching effects due to colored compounds. The Adapta™ assay can be divided into two phases: a kinase reaction phase and an ADP detection phase. In the kinase reaction phase, all kinase reaction components are added to the well and the reaction is allowed to incubate for a set period of time specific for each kinase. After the reaction, a detection solution of Eu-labeled anti-ADP antibody, Alexa Fluor® 647-labeled ADP tracer, and EDTA (to stop the kinase reaction) are added to the assay well. ADP formed by the kinase reaction will displace the Alexa Fluor® 647-labeled ADP tracer from the antibody, resulting in a decrease in TR-FRET signal. In the presence of an inhibitor, the amount of ADP formed by the kinase reaction is reduced, and the resulting intact antibody-tracer interaction maintains a high TR-FRET signal. In the Adapta™ assay, the donor (Europium-anti-ADP antibody) is excited at 340 nm and will transfer its energy to the acceptor (Alexa Fluor® 647-labeled ADP tracer). The emission from the Alexa Fluor® 647 can be monitored with a filter centered at 665 nm because it is located between the emission peaks of the donor, which is measured at 615/620 nm.
# 50 nL of compound dilutions were dispensed onto white 384-well small volume polystyrene plate as described in section 2.2. Then 5 μL of PI3Kg and PI3Kd and lipid substrate (PI or PIP2:PS) followed by 5 μL of ATP (final assay volume 10 μL) are incubated at RT. The standard reaction buffer for the Adapta™ TR-FRET assay contained 10 mM Tris-HCl pH 7.5, 3 mM MgCl2, 50 mM NaCl, 1 mM DTT, 0.05% CHAPS. Reactions were stopped with 5 μL of a mixture of EDTA containing the Eu-labeled anti-ADP antibody and the Alexa Fluor® 647-labeled ADP tracer in TR-FRET dilution buffer (proprietary to IVG). Plates are read 15 to 60 mins later in a Synergy2 reader using an integration time of 0.4 seconds and a delay of 0.05 seconds. […] The standard compound NVP-BGT226 was used as a reference compound and included in all assay plates in the form of 16 dilution points in duplicate.
# Data are analyzed using Excel fit software or Graphpad Prism. EC50 values were derived by fitting a sigmoidal dose-response curve to a plot of assay readout over inhibitor concentration. All fits were performed with the program XLfit4 (ID Business Solutions, Guildford, UK). […] All fits were performed with the program XLfit4 (ID Business Solutions, Guildford, UK).
# [3] = Photostability in light stability chamber; assay type: physicochemical; settings: 1.0 mg/ml in ethanol, 19620 kJ/m^2 over 13 h, 15° C., UPLC 254 nm
# Method: Samples investigated for light stability were treated in a light stability chamber (Atlas CPS+, Serial Number 0704013). Solutions of 1.0 mg/ml in ethanol were prepared for each molecule and aliquots of 0.5 mL were dispensed into suitable micro tubes. All measurements were done in duplicate and compared to a reference wrapped in aluminium foil during light exposure. Solutions were exposed to 19620 kJ/m^2 over 13 h. Samples were kept at 15° C. during the experiment. […] The peak areas were automatically integrated, and the degradation percentage calculated as the difference between the corresponding peak area percentage of the reference sample and the average peak area percentage of the exposed samples (duplicate).
IC50 [1],IC50 [2],% degradation in photostability assay (average) [3],SMILES
4.7 µM,7 µM,0%,CC[C@H]1[C@H](c2cccc(OC)c2)OC(=O)N1c1cc(-c2cnc(N)nc2C(F)(F)F)nc(N2CCOCC2)n1 [Example 6]
,4.5 µM,,CC[C@H]1[C@@H](c2ccccc2)OC(=O)N1c1cc(-c2cnc(N)nc2C(F)(F)F)nc(N2CCOCC2)n1 [Example 4]
